Laboratory results from US7138361B2, “Herbicidal heterocycles” (E. I. du Pont de Nemours and Company, priority 2000, dated 2006).

Columns and labels:
Format in all cases: in vivo
[1] = system: morning glory (Ipomoea hederacea); assay: Test B preemergence; conditions: scale 0 to 100, 0 no effect, 100 complete control
How it was run: (§1)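 Seeds were planted and sprayed preemergence with test chemical in a non-phytotoxic solvent mixture containing surfactant; postemergence plants (2 to 18 cm, 1- to 4-leaf stage) received the same formulation. Greenhouse hold 13 to 15 days, then visual rating versus untreated controls on a 0–100 scale (0 no effect, 100 complete control).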

[2] = system: pigweed (Amaranthus retroflexus); assay: Test B preemergence; conditions: scale 0 to 100, 0 no effect, 100 complete control
How it was run: as §1

[3] = system: crabgrass (Digitaria sanguinalis); assay: Test B preemergence; conditions: scale 0 to 100, 0 no effect, 100 complete control
How it was run: as §1

[4] = system: cocklebur (Xanthium strumarium); assay: Test B preemergence; conditions: scale 0 to 100, 0 no effect, 100 complete control
How it was run: as §1

[5] = system: corn (Zea mays); assay: Test B preemergence; conditions: scale 0 to 100, 0 no effect, 100 complete control
How it was run: as §1

[6] = system: Surinam grass (Brachiaria decumbens); assay: Test B preemergence; conditions: scale 0 to 100, 0 no effect, 100 complete control
How it was run: as §1

[7] = system: velvetleaf (Abutilon theophrasti); assay: Test B preemergence; conditions: scale 0 to 100, 0 no effect, 100 complete control
How it was run: as §1

[8] = system: barnyardgrass (Echinochloa crus-galli); assay: Test B preemergence; conditions: scale 0 to 100, 0 no effect, 100 complete control
How it was run: as §1

[9] = system: lambsquarters (Chenopodium album); assay: Test B preemergence; conditions: scale 0 to 100, 0 no effect, 100 complete control
How it was run: as §1

[10] = system: giant foxtail (Setaria faberii); assay: Test B preemergence; conditions: scale 0 to 100, 0 no effect, 100 complete control
How it was run: as §1

[11] = system: rice (Oryza saliva); assay: Test B preemergence; conditions: scale 0 to 100, 0 no effect, 100 complete control
How it was run: as §1

[12] = system: morning glory (Ipomoea hederacea); assay: Test B postemergence; conditions: 13 to 15 days
How it was run: as §1

[13] = system: wheat (Triticum aestivum); assay: Test B postemergence; conditions: 13 to 15 days
How it was run: as §1

[14] = system: wild oat (Avena fatua); assay: Test B postemergence; conditions: 13 to 15 days
How it was run: as §1

[15] = system: crabgrass (Digitaria sanguinalis); assay: Test B postemergence; conditions: 13 to 15 days
How it was run: as §1

[16] = system: cocklebur (Xanthium strumarium); assay: Test B postemergence; conditions: 13 to 15 days
How it was run: as §1

[17] = system: corn (Zea mays); assay: Test B postemergence; conditions: 13 to 15 days
How it was run: as §1

[18] = system: Surinam grass (Brachiaria decumbens); assay: Test B postemergence; conditions: 13 to 15 days
How it was run: as §1

[19] = system: velvetleaf (Abutilon theophrasti); assay: Test B postemergence; conditions: 13 to 15 days
How it was run: as §1

[20] = system: barnyardgrass (Echinochloa crus-galli); assay: Test B postemergence; conditions: 13 to 15 days
How it was run: as §1

[21] = system: lambsquarters (Chenopodium album); assay: Test B postemergence; conditions: 13 to 15 days
How it was run: as §1

[22] = system: giant foxtail (Setaria faberii); assay: Test B postemergence; conditions: 13 to 15 days
How it was run: as §1

[23] = system: blackgrass (Alopecurus myosuroides); assay: Test B postemergence; conditions: 13 to 15 days
How it was run: as §1

[24] = Rate 125 g/ha, scale 0 (no effect) to 100 (complete control)
[25] = Rate 500 g/ha, scale 0 to 100, 0 is no effect, 100 is complete control

## CCC(C)c1nn(C2CCN(c3cccc(C(F)(F)F)c3)C2=O)cc1Cl (centres unmarked) [Compound 13]
[1]; Preemergence, Rate 500 g/ha
  Plant response rating, Morningglory: 0
[1]; preemergence, Rate 125 g/ha
  Plant response rating, Morningglory: 0
[2]; Preemergence, Rate 500 g/ha
  Plant response rating, Pigweed: 0
[2]; preemergence, Rate 125 g/ha
  Plant response rating, Pigweed: 0
[3]; Preemergence, Rate 500 g/ha
  Plant response rating, Crabgrass: 0
[3]; preemergence, Rate 125 g/ha
  Plant response rating, Crabgrass: 0
[4]; Preemergence, Rate 500 g/ha
  Plant response rating, Cocklebur: 0
[4]; preemergence, Rate 125 g/ha
  Plant response rating, Cocklebur: 0
[5]; Preemergence, Rate 500 g/ha
  Plant response rating, Corn: 0
[5]; preemergence, Rate 125 g/ha
  Plant response rating, Corn: 0
[6]; Preemergence, Rate 500 g/ha
  Plant response rating, Surinam grass: 0
[6]; preemergence, Rate 125 g/ha
  Plant response rating, Surinam grass: 0
[7]; Preemergence, Rate 500 g/ha
  Plant response rating, Velvetleaf: 0
[7]; preemergence, Rate 125 g/ha
  Plant response rating, Velvetleaf: 0
[8]; Preemergence, Rate 500 g/ha
  Plant response rating, Barnyardgrass: 0
[8]; preemergence, Rate 125 g/ha
  Plant response rating, Barnyardgrass: 0
[9]; Preemergence, Rate 500 g/ha
  Plant response rating, Lambsquarters: 0
[9]; preemergence, Rate 125 g/ha
  Plant response rating, Lambsquarters: 0
[10]; Preemergence, Rate 500 g/ha
  Plant response rating, Foxtail, Giant: 0
[10]; preemergence, Rate 125 g/ha
  Plant response rating, Foxtail, Giant: 0
[11]; Preemergence, Rate 500 g/ha
  Plant response rating, Rice: 0
[11]; preemergence, Rate 125 g/ha
  Plant response rating, Rice: 0
[12]; [24]
  Plant response rating, Morningglory: 0
[12]; [25]
  Plant response rating, Morningglory: 70
[13]; [24]
  Plant response rating, Wheat: 0
[13]; [25]
  Plant response rating, Wheat: 0
[14]; [24]
  Plant response rating, Wild Oat: 20
[14]; [25]
  Plant response rating, Wild Oat: 20
[15]; [24]
  Plant response rating, Crabgrass: 60
[15]; [25]
  Plant response rating, Crabgrass: 60
[16]; [24]
  Plant response rating, Cocklebur: 0
[16]; [25]
  Plant response rating, Cocklebur: 0
[17]; [24]
  Plant response rating, Corn: 0
[17]; [25]
  Plant response rating, Corn: 0
[18]; [24]
  Plant response rating, Surinam grass: 0
[18]; [25]
  Plant response rating, Surinam grass: 0
[19]; [24]
  Plant response rating, Velvetleaf: 0
[19]; [25]
  Plant response rating, Velvetleaf: 0
[20]; [24]
  Plant response rating, Barnyardgrass: 0
[20]; [25]
  Plant response rating, Barnyardgrass: 0
[21]; [24]
  Plant response rating, Lambsquarters: 0
[21]; [25]
  Plant response rating, Lambsquarters: 0
[22]; [24]
  Plant response rating, Foxtail, Giant: 0
[22]; [25]
  Plant response rating, Foxtail, Giant: 0
[23]; [24]
  Plant response rating, Blackgrass: 0
[23]; [25]
  Plant response rating, Blackgrass: 0

## CC(C)(C)c1nn(C2CCN(c3cccc(C(F)(F)F)c3)C2=O)cc1Cl (centres unmarked) [Compound 14]
[1]; Preemergence, Rate 500 g/ha
  Plant response rating, Morningglory: 0
[1]; preemergence, Rate 125 g/ha
  Plant response rating, Morningglory: 0
[2]; Preemergence, Rate 500 g/ha
  Plant response rating, Pigweed: 0
[2]; preemergence, Rate 125 g/ha
  Plant response rating, Pigweed: 0
[3]; Preemergence, Rate 500 g/ha
  Plant response rating, Crabgrass: 0
[3]; preemergence, Rate 125 g/ha
  Plant response rating, Crabgrass: 0
[4]; Preemergence, Rate 500 g/ha
  Plant response rating, Cocklebur: 0
[4]; preemergence, Rate 125 g/ha
  Plant response rating, Cocklebur: 0
[5]; Preemergence, Rate 500 g/ha
  Plant response rating, Corn: 0
[5]; preemergence, Rate 125 g/ha
  Plant response rating, Corn: 0
[6]; Preemergence, Rate 500 g/ha
  Plant response rating, Surinam grass: 0
[6]; preemergence, Rate 125 g/ha
  Plant response rating, Surinam grass: 0
[7]; Preemergence, Rate 500 g/ha
  Plant response rating, Velvetleaf: 0
[7]; preemergence, Rate 125 g/ha
  Plant response rating, Velvetleaf: 0
[8]; Preemergence, Rate 500 g/ha
  Plant response rating, Barnyardgrass: 0
[8]; preemergence, Rate 125 g/ha
  Plant response rating, Barnyardgrass: 0
[9]; Preemergence, Rate 500 g/ha
  Plant response rating, Lambsquarters: 0
[9]; preemergence, Rate 125 g/ha
  Plant response rating, Lambsquarters: 0
[10]; Preemergence, Rate 500 g/ha
  Plant response rating, Foxtail, Giant: 0
[10]; preemergence, Rate 125 g/ha
  Plant response rating, Foxtail, Giant: 0
[11]; Preemergence, Rate 500 g/ha
  Plant response rating, Rice: 0
[11]; preemergence, Rate 125 g/ha
  Plant response rating, Rice: 0
[12]; [24]
  Plant response rating, Morningglory: 30
[12]; [25]
  Plant response rating, Morningglory: 80
[13]; [24]
  Plant response rating, Wheat: 0
[13]; [25]
  Plant response rating, Wheat: 0
[14]; [24]
  Plant response rating, Wild Oat: 0
[14]; [25]
  Plant response rating, Wild Oat: 0
[15]; [24]
  Plant response rating, Crabgrass: 50
[15]; [25]
  Plant response rating, Crabgrass: 70
[16]; [24]
  Plant response rating, Cocklebur: 0
[16]; [25]
  Plant response rating, Cocklebur: 0
[17]; [24]
  Plant response rating, Corn: 0
[17]; [25]
  Plant response rating, Corn: 0
[18]; [24]
  Plant response rating, Surinam grass: 0
[18]; [25]
  Plant response rating, Surinam grass: 0
[19]; [24]
  Plant response rating, Velvetleaf: 0
[19]; [25]
  Plant response rating, Velvetleaf: 0
[20]; [24]
  Plant response rating, Barnyardgrass: 0
[20]; [25]
  Plant response rating, Barnyardgrass: 0
[21]; [24]
  Plant response rating, Lambsquarters: 0
[21]; [25]
  Plant response rating, Lambsquarters: 0
[22]; [24]
  Plant response rating, Foxtail, Giant: 20
[22]; [25]
  Plant response rating, Foxtail, Giant: 30
[23]; [24]
  Plant response rating, Blackgrass: 0
[23]; [25]
  Plant response rating, Blackgrass: 0
